Experimental data: patent US20230210113A1, “FUNGICIDAL COMPOSITIONS” (SYNGENTA CROP PROTECTION AG, priority 2020, published 2023)

Legend:
[1] = system: Botrytis cinerea; assay: Liquid culture test in well plates, Botrytis cinerea (gray mould), growth inhibition; assay type: cell-based; settings: 72 hours, 24° C.
Experimental: (§1) Mycelia fragments or conidia suspensions of a fungus, prepared either freshly from liquid cultures of the fungus or from cryogenic storage, are directly mixed into nutrient broth. DMSO solutions of the test compound (max. 10 mg/mL) is diluted with 0.025% Tween20 by factor 50 and 10 µL of this solution is pipetted into a microtiter plate (96-well format). […] The test plates are incubated in the dark at 24° C. and 96% relative humidity (rh). The inhibition of fungal growth is determined photometrically and visually after 3 - 7 days, depending on the pathosystem, and percent antifungal activity relative to the untreated check is calculated.
Conidia of the fungus from cryogenic storage were directly mixed into nutrient broth (PDB potato dextrose broth). After placing a DMSO solution of the test compositions into a microtiter plate (96-well format), the nutrient broth containing the fungal spores was added.

[2] = system: Alternaria solani; assay: Liquid culture test in well plates, Alternaria solani (early blight of tomato/potato), growth inhibition; assay type: cell-based; settings: 48 hours, 24° C.
Experimental: as §1
Conidia of the fungus from cryogenic storage were directly mixed into nutrient broth (PDB potato dextrose broth). After placing a DMSO solution of the test compositions into a microtiter plate (96-well format) the nutrient broth containing the fungal spores was added.

Aureobasidin A
(A) inhibition (%) ([1]; Aureobasidin A 0.0012 ppm alone): 6%
(A) inhibition (%) ([1]; Aureobasidin A 0.0025 ppm alone): 6%
(A) inhibition (%) ([1]; Aureobasidin A 0.0050 ppm alone): 4%
(A) inhibition (%) ([1]; Aureobasidin A 0.0100 ppm alone): 34%
(A) inhibition (%) ([1]; Aureobasidin A 0.0200 ppm alone): 41%
(A) inhibition (%) ([2]; Aureobasidin A 0.02 ppm alone): 24%

O=C1c2ccccc2C(=O)N1SC(Cl)(Cl)Cl [Folpet, folpet, reference compound]
inhibition at 0.25 ppm ([1]; Botrytis cinerea, Folpet 0.25 ppm alone, read-out: (B) inhibition (%)): 21%
inhibition at 0.5 ppm ([1]; Botrytis cinerea, Folpet 0.50 ppm alone, read-out: (B) inhibition (%)): 44%
inhibition at 1 ppm ([1]; Botrytis cinerea, Folpet 1.00 ppm alone, read-out: (B) inhibition (%)): 78%
inhibition at 0.25 ppm ([2]; Alternaria solani, Folpet 0.25 ppm alone, read-out: (B) inhibition (%)): 3%
